“Also recorded” adds a separate entry of the source.
Legend:
[1] = system: olfactory neurons (primary cultures); experiment: effect of substrate matrix substances on morphology and plating efficiency of olfactory neurons; assay type: cell-based, rat; conditions: for process (neurite) outgrowth / plating efficiency: coated slides, phase contrast and anti-vimentin immunofluorescence
Experimental: To determine the role of substrate matrix substances on plating efficiency and on cellular selection, a number of different substrates were tested.
Two chamber slides were pretreated in a number of ways. For laminin coating, 1 ml of MDV containing 25 ug/ml laminin was plated onto glass two-chamber slides overnight at 37° C.; before use, the slides were rinsed with MDV. For fibronectin, slides were treated with a solution containing 1 ml of MDV containing 20 ug/ml fibronectin (Collaborative Research), incubated overnight at 37° C., and rinsed with MDV prior to use. For polyornithine (PORN, Sigma Chemicals), a solution at a concentration of 1 mg/ml PORN in deionized distilled water was added to slides, incubated 1 hr at 37° C., rinsed twice with deionized distilled water, and rinsed once with MDV prior to use. When laminin was used on PORN-treated slides, slides were treated with PORN and then laminin in the usual manner. Coating of slides with poly-D-lysine was performed analogous to treatment with polyornithine. Heparan sulfate was diluted in MDV to a concentration of 10 ug/ml and 1 ml was placed on a slide, maintained overnight at 37° C., and rinsed with deionized distilled water prior to use. Collagen (Gibco) or collagen IV (Collaborative Research) was prepared as a 50 ug/ml solution in deionized distilled water and 1 ml of this solution utilized per slide. In the case of collagen, the solution was allowed to air dry. Collagen IV was maintained overnight at room temperature, aspirated, air dried and then rinsed twice with deionized distilled water prior to use. When laminin was used with collagen IV, collagen IV was prepared as described, and laminin was subsequently added in the usual manner. Matrigel (Collaborative Research) was utilized according to manufacturer's instructions.
Primary cultures were prepared as describe above and plated onto a number of different substrates and examined by phase contrast as well as immunofluorescence with antivimentin antisera (FIG. 6).
Matrigel was also examined as a substrate (FIG. 7).

NG-108 cells = experiment: cyclic AMP levels (RIA) in NG-108 cells exposed to odorant; assay type: cell-based; conditions: similar treatment
[2] = system: Primary olfactory neurons; experiment: cyclic AMP levels (RIA) in primary olfactory neurons exposed to odorant; assay type: cell-based, rat; conditions: 10 uM IBMP
Description: Olfactory tissue from neonatal rats was collected, minced, dissociated in enzymes and plated on chamber slides pretreated with laminin as described below.
Approximately 3 litters or 28-32 pups were used per prep. The 2-3 day old rat pups were sacrificed by decapitation, and olfactory tissue dissected and immediately placed in modified Eagle's medium (MEM) containing 4.8 g/l of HEPES buffer, designated MEM-AIR. The turbinates were transferred twice through fresh MEM-AIR to minimize contamination. Tissue was then centrifuged at 700×g for 7 min. After the supernatant was decanted, the tissue was minced to achieve tissue fragments of approximately 1 mm in size, resuspended in MEM-AIR and centrifuged at 700×g for 7 min. Tissue was then placed in 30 ml of MEM-AIR containing 1% (w/v) BSA, RIA grade (Sigma, St. Louis, Mo.), 1 mg/ml hyaluronidase (Sigma), 50 ug/ml DNAse (Sigma), 1 mg/ml collagenase (Worthington Biochemicals, Freehold, N.J.), and 5 mg/ml dispase (Boehringer-Mannheim Biochemicals, Indianapolis, Ind.), and incubated with agitation for 1 hr at 37° C. At the end of incubation, the cell suspension was triturated 10 times with a 10 ml plastic piper and passed through a 150 micron wire mesh. The cell suspension was then centrifuged at 500×g for 5 min. […]

[3] = system: olfactory neurons (primary cultures); experiment: effect of NGF on olfactory neuron survival and neurite extension; assay type: cell-based, rat
Experimental: Approximately 3 litters or 28-32 pups were used per prep. The 2-3 day old rat pups were sacrificed by decapitation, and olfactory tissue dissected and immediately placed in modified Eagle's medium (MEM) containing 4.8 g/l of HEPES buffer, designated MEM-AIR. The turbinates were transferred twice through fresh MEM-AIR to minimize contamination. Tissue was then centrifuged at 700×g for 7 min. After the supernatant was decanted, the tissue was minced to achieve tissue fragments of approximately 1 mm in size, resuspended in MEM-AIR and centrifuged at 700×g for 7 min. Tissue was then placed in 30 ml of MEM-AIR containing 1% (w/v) BSA, RIA grade (Sigma, St. Louis, Mo.), 1 mg/ml hyaluronidase (Sigma), 50 ug/ml DNAse (Sigma), 1 mg/ml collagenase (Worthington Biochemicals, Freehold, N.J.), and 5 mg/ml dispase (Boehringer-Mannheim Biochemicals, Indianapolis, Ind.), and incubated with agitation for 1 hr at 37° C. At the end of incubation, the cell suspension was triturated 10 times with a 10 ml plastic piper and passed through a 150 micron wire mesh. The cell suspension was then centrifuged at 500×g for 5 min. The supernatant was aspirated and the cell pellet resuspended in plating medium composed of modified Eagle's medium containing D-valine (MDV, Gibco, Grand Island, N.Y.) containing 15% (v/v) dialyzed fetal calf serum (dFCS, Gibco), 5% (v/v) NU serum (Collaborative Research, Bedford, Mass.), 10 uM cytosine arabinoside (ara C) and 25 ng/ml nerve growth factor (NGF, Collaborative Research). After resuspension, cells were successively filtered through 50 micron and 10 micron nylon mesh filters (Small Parts, Miami, Fla.), to remove any remaining undigested clumps of cells and epithelial cells. Cells were plated at a density of 1×10^6 cells per cm^2 into tissue culture dish (Falcon, Lincoln Park, N.J.) or Labtek tissue culture slides (Nunc, Naperville, Ill.) coated with MDV containing laminin at 25 ug/ml (Collaborative Research). Cultures were placed in a humidified 37° C. incubator receiving 5% CO2. […]

[4] = without NGF vs 25 ng/ml NGF, by 3 days in culture

In the case of fibronectin, the “process (neurite) outgrowth” value [1] is reported as “the processes are shorter”.

With laminin the “plating efficiency” value [1] was “optimal plating efficiency” and the “neurite extension and aggregation of cells” value ([1]; duplicate cell suspensions, laminin vs matrigel) was “cells extend neurites in a random fashion, with no tendency to reaggregate”.

With collagen the “plating efficiency” value [1] was “somewhat better plating efficiency than poly-D-lysine, polyornithine or heparan-sulfate” and the “process (neurite) outgrowth” value [1] was “process outgrowth is still stunted”.

In the case of COc1nccnc1CC(C)C [IBMP, 2-isobutyl-3-methoxypyrazine], the “change of cyclic AMP levels” value (NG-108 cells) is reported as “does not alter cyclic AMP levels” and the “change of intracellular cyclic AMP levels” value [2] is reported as “rapid, transient rise in intracellular cyclic AMP levels”.

B1: NGF: nerve growth factor (NGF, Collaborative Research) (protein, UniProt P01139 122-241, looked up)
Beta-nerve growth factor: SSTHPVFHMGEFSVCDSVSVWVGDKTTATDIKGKEVTVLAEVNINNSVFRQYFFETKCRASNPVESGCRGIDSKHWNSYCTTTHTFVKALTTDEKQAAWRFIRIDTACVCVLSRKATRRG
modifications: Beta-nerve growth factor
B1 was tested, and the “role in olfactory neuronal survival and neurite extension” value ([3]; 25 ng/ml NGF in medium) was “necessary for survival of olfactory neurons; also recorded: affects both olfactory neuronal survival and neurite extension in culture”, the “decrease of cell viability in cells maintained without NGF” value [3, 4] was “approximately 85%” and the “process extension in cells maintained without NGF” value [3, 4] was “lose process extension”.

— US5380651A, “Method of determining odorant compounds and antagonists of odorants using a primary culture of olfactory neurons” (The Johns Hopkins University, priority 1993, dated 1995)
